From US9675070B2 (BAYER CROPSCIENCE AG, priority 2013, dated 2017) come the findings set out here.

A short description of series [1]: log P determination by HPLC on reversed-phase column (C18), EEC Directive 79/831 Annex V.A8. In kind it is physicochemical. The settings on record: method a): Agilent 1100 LC, Zorbax Eclipse Plus C18, acetonitrile/water with formic acid, gradient 10-95% in 4.25 min, 55° C. The protocol:
Agilent 1100 LC system; 50*4.6 Zorbax Eclipse Plus C18 1.8 micron; mobile phase A: acetonitrile (0.1% formic acid); mobile phase B: water (0.09% formic acid); linear gradient from 10% acetonitrile to 95% acetonitrile in 4.25 min, then 95% acetonitrile for a further 1.25 min; oven temperature 55° C.; flow rate: 2.0 ml/min. Mass detection is carried out via an Agilend MSD system.
^a)Unless indicated otherwise, the following method was used to determine the log P values and masses: The determination of the given log P values was carried out in accordance with EEC Directive 79/831 Annex V.A8 by HPLC (High Performance Liquid Chromatography) on a reversed-phase column (C18). Agilent 1100 LC system; 50*4.6 Zorbax Eclipse Plus C18 1.8 micron; mobile phase A: acetonitrile (0.1% formic acid); mobile phase B: water (0.09% formic acid); linear gradient from 10% acetonitrile to 95% acetonitrile in 4.25 min, then 95% acetonitrile for a further 1.25 min; oven temperature 55° C.; flow rate: 2.0 ml/min. Mass detection is carried out via an Agilend MSD system. ^b)Note for the alternative method for determining log P values and masses: The stated log P values were determined in accordance with EEC Directive 79/831 Annex V.A8 by HPLC (High Performance Liquid Chromatography) using a reversed-phase column (C18). Waters ACQUITY UPLC-MS system; 2.1*50 mm Zorbax Eclipse Plus C18 1.8 μm 600 bar; injection volume: 0.5 ul about 1000 ppm; mobile phase A: acetonitrile (0.1% formic acid); mobile phase B: water (0.085% formic acid); linear gradient from 10% acetonitrile to 95% acetonitrile in 1.5 min, then 95% acetonitrile for a further 0.5 min; oven temperature 60° C.; flow rate: 1.0 ml/min. Mass detection is carried out via a Waters SQD system.

The subject of series [2] is Tick nymphs (Amblyomma hebraeum). As to the kind of experiment: Amblyomma hebaraeum test (AMBYHE), tick nymph immersion. In kind it is in vivo. The settings on record: application rate 100 ppm; immersion one minute; after 42 days. The protocol: Amblyomma hebaraeum Test (AMBYHE) Solvent: dimethyl sulphoxide To produce a suitable preparation of active compound, 10 mg of active compound are mixed with 0.5 ml of dimethyl sulphoxide, and the concentrate is diluted with water to the desired concentration. Tick nymphs (Amblyomma hebraeum) are placed into perforated plastic beakers and immersed in the desired concentration for one minute. The ticks are transferred on filter paper into a Petri dish and stored in a climate-controlled cabinet. After 42 days, the kill in % is determined. 100% means that all of the ticks have been killed; 0% means that none of the ticks have been killed.

In series [3] the test system is engorged adult female cattle ticks (Boophilus microplus). As to the kind of experiment: Boophilus microplus injection test (BOOPMI Inj). It counts as in vivo. The conditions noted are these: application rate 20 μg/animal; injection into abdomen; assessed after 7 days. The protocol: Boophilus microplus Injection Test (BOOPMI Inj)
(§1) Solvent: dimethyl sulphoxide
To produce a suitable preparation of active compound, 10 mg of active compound are mixed with 0.5 ml of solvent, and the concentrate is diluted with solvent to the desired concentration.
1 μl of the active compound solution is injected into the abdomen of 5 engorged adult female cattle ticks (Boophilus microplus). The animals are transferred into dishes and kept in a climate-controlled room.
(§2) The activity is assessed after 7 days by laying of fertile eggs. Eggs whose fertility is not visible from the outside are stored in a climate-controlled cabinet until the larvae hatch after about 42 days. An efficacy of 100% means that none of the ticks has laid any fertile eggs; 0% means that all eggs are fertile.

The subject of series [4] is adult cat fleas (Ctenocephalides felis). The series is described as follows: Ctenocephalides felis oral test (CTECFE). It counts as in vivo. The settings on record: application rate 100 ppm in citrated cattle blood; after 2 days. The protocol:
Ctenocephalides felis-Oral Test ([…]) Solvent: dimethyl sulphoxide To produce a suitable preparation of active compound, 10 mg of active compound are mixed with 0.5 ml of dimethyl sulphoxide. Dilution with citrated cattle blood gives the desired concentration. About 20 unfed adult cat fleas (Ctenocephalides felis) are placed into a chamber which is closed at the top and bottom with gauze. A metal cylinder whose bottom end is closed with a parafilm is placed onto the chamber. The cylinder contains the blood/active ingredient preparation, which can be imbibed by the fleas through the parafilm membrane. After 2 days, the kill in % is determined. 100% means that all of the fleas have been killed; 0% means that none of the fleas have been killed.

Series [5] concerns adult houseflies (Musca domestica). As to the kind of experiment: Musca domestica test (MUSCDO). It counts as in vivo. The settings on record: application rate 100 ppm; after 2 days. The protocol:
Musca domestica Test (MUSCDO) Solvents: dimethyl sulphoxide To produce a suitable preparation of active compound, 10 mg of active compound are mixed with 0.5 ml of dimethyl sulphoxide, and the concentrate is diluted with water to the desired concentration. Vessels containing a sponge treated with sugar solution and the active compound preparation of the desired concentration are populated with 10 adult houseflies (Musca domestica). After 2 days, the kill in % is determined. 100% means that all of the flies have been killed; 0% means that none of the flies have been killed.

The test system of series [6] is caterpillars of the armyworm (Spodoptera frugiperda). The series is described as follows: Spodoptera frugiperda spray test (SPODFR). It counts as in vivo. The conditions noted are these: application rate 100 g/ha; maize leaf discs; after 7 days. The protocol:
Spodoptera frugiperda—Spray Test (SPODFR)
(§3) Solvents: 78.0 parts by weight of acetone
(§4) • 1.5 parts by weight of dimethylformamide Emulsifier: alkylaryl polyglycol ether
(§5) To produce a suitable preparation of active compound, 1 part by weight of active compound is dissolved using the stated parts by weight of solvent and made up with water comprising an emulsifier concentration of 1000 ppm until the desired concentration is reached. To produce further test concentrations, the preparation is diluted with emulsifier-containing water.
Leaf discs of maize (Zea mays) are sprayed with an active compound preparation of the desired concentration and, after drying, populated with caterpillars of the armyworm (Spodoptera frugiperda).
After 7 days, the efficacy in % is determined. 100% means that all of the caterpillars have been killed; 0% means that none of the caterpillars have been killed.

The test system of series [7] is larvae of the mustard beetle (Phaedon cochleariae). The series is described as follows: Phaedon cochleariae spray test (PHAECO). In kind it is in vivo. The settings on record: application rate 100 g/ha; Chinese cabbage leaf discs; after 7 days. The protocol:
Phaedon cochleariae—Spray Test (PHAECO)
as §3, §4, §5
After 7 days, the efficacy in % is determined. 100% means that all of the beetle larvae have been killed; 0% means that none of the beetle larvae have been killed.

Series [8] has as its system greenhouse red spider mite (Tetranychus urticae), OP-resistant. The series is described as follows: Tetranychus urticae spray test, OP-resistant (TETRUR). The settings on record: application rate 100 g/ha; bean leaf discs; after 6 days. In kind it is in vivo. The protocol: Tetranychus urticae—Spray Test, OP-Resistant (TETRUR)
as §3, §4, §5
Discs of bean leaves (Phaseolus vulgaris) which are infested by all stages of the greenhouse red spider mite (Tetranychus urticae) are sprayed with an active compound preparation of the desired concentration.
After 6 days, the efficacy in % is determined. 100% means that all of the spider mites have been killed; 0% means that none of the spider mites have been killed.

In series [9] the test system is L1 larvae of the Australian sheep blowfly (Lucilia cuprina). As to the kind of experiment: Lucilia cuprina test (LUCICU). In kind it is in vivo. The conditions noted are these: application rate 100 ppm; minced horsemeat; after 2 days. The protocol:
Lucilia cuprina Test (LUCICU) Solvent: dimethyl sulphoxide To produce a suitable preparation of active compound, 10 mg of active compound are mixed with 0.5 ml of dimethyl sulphoxide, and the concentrate is diluted with water to the desired concentration. About 20 L1 larvae of the Australian sheep blowfly (Lucilia cuprina) are transferred into a test vessel containing minced horsemeat and the active compound preparation of the desired concentration. After 2 days, the kill in % is determined. 100% means that all of the larvae have been killed; 0% means that none of the larvae have been killed.

Series [10] deals with cattle ticks (Boophilus microplus) Parkhurst strain, SP-resistant. The series is described as follows: Boophilus microplus dip test (BOOPMI Dip). In kind it is in vivo. The settings on record: application rate 100 ppm, assessed after 7 days. The protocol: Boophilus microplus—Dip Test (BOOPMI Dip)
Test animals: cattle ticks (Boophilus microplus) Parkhurst strain, SP-resistant
as §1
10 mg of active compound are dissolved in 0.5 ml of dimethyl sulphoxide. To prepare a suitable formulation, the active compound solution is diluted with water to the concentration desired in each case.
This active compound preparation is pipetted into tubes. 8-10 adult engorged female cattle ticks (Boophilus microplus) are transferred into a further tube with holes. The tube is immersed into the active compound formulation, and all ticks are completely wetted. After the liquid has run out, the ticks are transferred on filter discs into plastic dishes and stored in a climate-controlled room.
as §2

Structures are written as SMILES. Where a name gives a salt, the structure may show the parent alone.

On to `Cn1nc(C(F)(F)C(F)(F)F)c(C(F)(F)F)c1-n1cc(Br)cn1` [4-bromo-2′-methyl-5′-(pentafluoroethyl)-4′-(trifluoromethyl)-2′H-1,3′-bipyrazole], for which the chromatographic logP (in general, lipophilicity estimated from chromatographic retention) in series [1] was 4.17.

As for `Cn1nc(C(F)(F)C(F)(F)F)c(C(F)(F)F)c1-n1cc(-c2ccc(F)c(CNC(=O)C3CC3)c2)cn1` [Ic-12], the kill in % in [2], in [4], in series [5] and in [9] was 100% throughout. Besides, the “efficacy (no laying of fertile eggs)” value in [3] turned out to be 100%. Moreover, the efficacy in % is listed as 100% in [6], 100% in series [7] and 90% in [8].

In the case of `Cn1nc(C(F)(F)C(F)(F)F)c(C(F)(F)F)c1-n1cc(-c2ccc(F)c(C#N)c2)cn1` [2-fluoro-5-[2′-methyl-5′-(pentafluoroethyl)-4′-(trifluoromethyl)-2′H-1,3′-bipyrazol-4-yl]benzonitrile], the chromatographic logP in [1] came out at 4.37.

Turning to `CC(=O)NCc1cccc(-c2cnn(-c3c(C(F)(F)F)c(C(F)(F)C(F)(F)F)nn3C)c2)c1` [Ic-16], the kill in % in series [2], in [4], in series [5] and in series [9] was 100% throughout. Moreover, the “efficacy (no laying of fertile eggs)” value in series [3] and in [10] was 100% throughout. For the same compound, the efficacy in % is reported as 100% in [7] and 90% in series [8].

For the compound `Cn1nc(C(F)(F)C(F)(F)F)c(C(F)(F)F)c1-n1cnc(I)c1` [5-(4-iodo-1H-imidazol-1-yl)-1-methyl-3-(pentafluoroethyl)-4-(trifluoromethyl)-1H-pyrazole], in series [1], the chromatographic logP was 3.47.

`CCC(=O)NCc1cc(-c2cn(-c3c(C(F)(F)F)c(C(F)(F)C(F)(F)F)nn3C)nn2)ccc1F` [Ig-5]: the “efficacy (no laying of fertile eggs)” value in [3] and in series [10] was 100% throughout. The kill in % in series [4], in series [5] and in series [9] was 100% each time. Moreover, the efficacy in % in series [6] and in [7] was 100% each time.

Consider `CCC(=O)NCc1cccc(-c2cn(-c3c(C(F)(F)F)c(C(F)(F)C(F)(F)F)nn3C)cn2)c1` [Ib-5, N-(3-{1-[1-methyl-3-(pentafluoroethyl)-4-(trifluoromethyl)-1H-pyrazol-5-yl]-1H-imidazol-4-yl}benzyl)propanamide], for which the chromatographic logP in series [1] stood at 3.14.

For `CC(=O)NCc1cc(-c2cn(-c3c(C(F)(F)F)c(C(F)(F)C(F)(F)F)nn3C)nn2)ccc1F` [Ig-1], the results for the “efficacy (no laying of fertile eggs)” value in series [3] and in [10] were 100% and 80%, respectively. Besides, the kill in % in series [4], in series [5] and in [9] was 100% throughout. The efficacy in % in [7] and in series [8] was 100% in each case.

In the case of `Cn1nc(C(F)(F)C(F)(F)F)c(C(F)(F)F)c1-n1cnc(-c2cccc(CNC(=O)OC(C)(C)C)c2)c1` [Ib-1, tert-butyl (3-{1-[1-methyl-3-(pentafluoroethyl)-4-(trifluoromethyl)-1H-pyrazol-5-yl]-1H-imidazol-4-yl}benzyl)carbamate], the chromatographic logP in series [1] came to 4.21.

On to `Cn1nc(C(F)(F)C(F)(F)F)c(C(F)(F)F)c1-n1cnc(-c2cccc(CN)c2)c1` [1-(3-{1-[1-methyl-3-(pentafluoroethyl)-4-(trifluoromethyl)-1H-pyrazol-5-yl]-1H-imidazol-4-yl}phenyl)methanamine hydrochloride], for which the chromatographic logP in series [1] worked out at 1.83.

For `CCC(=O)NCc1cc(-c2cnn(-c3c(C(F)(F)F)c(C(F)(F)C(F)(F)F)nn3C)c2)ccc1F` [Ib-8, N-{2-fluoro-5-[2′-methyl-5′-(pentafluoroethyl)-4′-(trifluoromethyl)-2′H-1,3′-bipyrazol-4-yl]benzyl}propanamide], in [3], the “efficacy (no laying of fertile eggs)” value was found to be 100%. In addition, the kill in % in [4] was 95%; in series [9], 100%. Also, the chromatographic logP in series [1] was found to be 3.27. Also, the efficacy in % in [7] was found to be 100%.

Turning to `Cn1nc(C(F)(F)C(F)(F)F)c(C(F)(F)F)c1-n1cc(-c2cccc(CN)c2)cn1` [1-{3-[2′-methyl-5′-(pentafluoroethyl)-4′-(trifluoromethyl)-2′H-1,3′-bipyrazol-4-yl]phenyl}methanamine hydrochloride (1:1)], in series [1], the chromatographic logP worked out at 1.93.
